{
  "source": "patent US20260345524A1",
  "about": "“TARGETING KDM2A TO ENHANCE IMMUNE RESPONSIVENESS TO CANCERS” (The Board of Trustees of the Leland Stanford Junior …, priority 2023, published 2026)",
  "key": {"[1]": {"tested_on": "NSD1-inhibited MOC1 tumors", "experiment": "Luciferase expressing MOC1 tumors, EZH2 inhibitor treatment, bioluminescence imaging", "type": "in vivo, mouse (B6 wild type)", "conditions": "200 mg/kg daily, luminescence day 10", "method": "FIG. 14. Luciferase expressing MOC1 cells, transduced with scramble control shRNA, NSD1 shRNA, or both NSD1 shRNA and KDM2A shRNA, were injected to B6 wild type mice subcutaneously. The mice were treated 24 hours later with or without EZH2 inhibitor (EPZ-6438) at a dose of 200 mg/kg daily, with or without anti-PD-1 antibody (200 μg/mouse). Bioluminescence imaging was used to assess tumor burden; quantified luminescence signal on day 10 is shown in photons per second. *p<0.05."}, "[2]": {"conditions": "not told; cited from earlier work"}, "[3]": {"tested_on": "other JmjC lysine demethylases", "conditions": "KDM2A/7A versus other JmjC lysine demethylases; cited from earlier work"}, "[4]": {"tested_on": "histone acetyl transferases", "conditions": "cited from earlier work"}, "KDM2A [5]": {"tested_on": "KDM2A", "conditions": "cited from earlier work"}, "methyl transferases": {"tested_on": "methyl transferases", "conditions": "cited from earlier work"}, "KDM2A [6]": {"tested_on": "KDM2A", "conditions": "cited from earlier work", "remark": "listed apart in the source"}, "FaDu tumor spheroids": {"tested_on": "FaDu tumor spheroids", "experiment": "Spheroid T cell infiltration assay, CD19-CAR T cells co-cultured with CD19-expressing tumor spheroids", "type": "cell-based, human", "conditions": "daminozide 1.5 μM, added the day before T cells; 3 days co-culture", "text": "FIG. 3A-3G. KDM2A inhibition reverses the immune cold phenotype induced by NSD1 inactivation and induces T cell infiltration into the tumor microenvironment. (A) Overview and illustration of experiment workflow. Tumor spheroids were established from HNSCC tumor cells transfected to express truncated CD19 on the cell surface and grown in submerged Matrigel. The spheroids were co-cultured with CD19-CAR-T cells for three days and then isolated for analysis by confocal microscopy. (B) Assessment by qRT-PCR of CXCL9 and CXCL10 expression after CXCL9 or CXCL10 overexpression (OE) in FaDu cells transduced to express shRNA targeting NSD1 (NSD1-sh). (C) Representative images of tumor spheroids after co-cultured with CD19-CAR-T cells for 3 days. Ctrl=vector control; NSD1-sh=shRNA targeting NSD1; CXCL9-OE=overexpression construct for CXCL9; CXCL10-OE=overexpression construct for CXCL10; KDM2A-sh=shRNA targeting KDM2A. Scale bar=50 um. (D) Representative images of tumor spheroids stained with anti-CD3 antibody (red) and DAPI (blue). […] (E) Quantification of CD3+ cells per 100 cells in the spheroids. […] (G) Quantification of CD3^+ cells per 100 cells in the spheroids. […]\nSpheroid T cellinfiltration assay. […] After 3 days of co-culture, the spheroid Matrigel domes were harvested and analyzed by microscopy. […] The stained samples were mounted on glass slides and analyzed by LSM700 confocal microscopy (Zeiss). […]"}, "CTLA4": {"tested_on": "CTLA4", "conditions": "cited from earlier work"}, "CTLA-4": {"tested_on": "CTLA-4", "conditions": "cited from earlier work"}, "HNSCC": {"tested_on": "HNSCC", "conditions": "human, in vivo; cited from earlier work"}, "HPV-unrelated HNSCC": {"tested_on": "HPV-unrelated HNSCC", "experiment": "neoadjuvant pembrolizumab phase II window-of-opportunity trial (NCT02296684)", "type": "in vivo, human", "method": "FIGS. 1A-1D: NSD1 inactivation downregulates the expression of CXCL9 and CXCL10 in HNSCC. RNA expression and genomic sequencing data from a multicenter, phase II, window-of-opportunity trial (NCT02296684) (23) was examined for CXCL9 and CXCL10 expression and NSD1 mutations. In this trial, neoadjuvant pembrolizumab was administered to patients with locally advanced, resectable, HPV-unrelated HNSCC two to three weeks prior to definitive surgical resection. (A) Comparison of CXCL9 and CXCL10 baseline expression to pathologic tumor response (pTR), as defined in (23), to the anti-PD-1 antibody pembrolizumab. Circles represent responders. ▴ A represent non-responders with wild-type NSD1. Gray triangles represent non-responders with mutated NSD1. (B) Tumor histology from the two patients in the trial that had tumors with NSD1 mutations. Histology of NSD wild-type tumors is also shown. […]\nCXCL9 and CXCL10 in human HNSCC datasets. […] The dataset was subsequently analyzed using Seurat (25): The series matrix was loaded into a Seurat object and was filtered to exclude poor quality or dying cells by removing cells with a mitochondrial genome fraction of 0.4 or greater as well as those with a unique feature count of fewer than 200 genes. […] Expression of CXCL9 and CXCL10 was analyzed within samples that had been profiled using whole exome sequencing, such that the NSD1 mutation status was known. […]"}},
  "data": [
    {"compound": "CCN(c1cc(-c2ccc(CN3CCOCC3)cc2)cc(C(=O)NCc2c(C)cc(C)[nH]c2=O)c1C)C1CCOCC1", "note": "[EPZ-6438]", "values": [
      {"measurement": "tumor growth in WT mice (EZH2 inhibition)", "setting": "[1]", "result": "does reduce tumor growth in WT mice but not to the extent that KDM2A inhibition appeared to achieve"}
    ]},
    {"compound": "CC(=O)N1c2ccccc2[C@@](C#N)(c2ccccc2)[C@@H]1c1cncc(CCCCCCCN2CCCC2)c1", "note": "[KDM2A/7A-IN-1]", "values": [
      {"measurement": "cell permeability", "setting": "[2]", "result": "cell-permeable"},
      {"measurement": "selectivity over other JmjC lysine demethylases", "setting": "[3]", "result": 75, "unit": "fold"},
      {"measurement": "activity on histone acetyl transferases", "setting": "[4]", "result": "inactive"},
      {"measurement": "IC50", "setting": "KDM2A [5]", "result": 160, "unit": "nM"},
      {"measurement": "activity on methyl transferases", "setting": "methyl transferases", "result": "inactive"}
    ]},
    {"compound": "CN(C)NC(=O)CCC(=O)O", "note": "[daminozide]", "values": [
      {"measurement": "effect on KDM2A histone demethylation", "setting": "KDM2A [6]", "result": "significantly abrogate the effect of KDM2A on histone demethylation"},
      {"measurement": "T cell infiltration into tumor spheroids (CD3+ cells per 100 cells)", "setting": "FaDu tumor spheroids", "result": "increased the number of infiltrating T cells into tumor spheroids"}
    ]},
    {"compound": "Tremelimumab: fully humanized CTLA4 antibody", "values": [
      {"measurement": "toxicity", "setting": "CTLA4; 10 mg/kg monthly vs 15 mg/kg every 3 months, phase II", "result": "toxicity was doubled"},
      {"measurement": "sustained plasma level in the majority of responders", "setting": "CTLA4; at one month", "result": "> 30", "unit": "µg/mL"},
      {"measurement": "dose at which objective responses were evident", "setting": "CTLA4; single antibody infusion, 0.01 mg/kg to 15 mg/kg", "result": "≥ 3", "unit": "mg/kg"}
    ]},
    {"compound": "ipilimumab: fully humanized CTLA4 antibody", "values": [
      {"measurement": "grade III/IV enterocolitis", "setting": "CTLA-4; 10 mg/kg", "result": "~ 15%"},
      {"measurement": "hepatitis", "setting": "CTLA-4; additional irAEs", "result": "5-10%"},
      {"measurement": "hypophysitis", "setting": "CTLA-4; additional irAEs", "result": 5, "unit": "%"},
      {"measurement": "leucopenia", "setting": "CTLA-4; additional irAEs", "result": "< 2", "unit": "%"},
      {"measurement": "pancreatitis", "setting": "CTLA-4; additional irAEs", "result": "< 2", "unit": "%"},
      {"measurement": "rash/pruritus", "setting": "CTLA-4; additional irAEs", "result": "> 50", "unit": "%"},
      {"measurement": "uveitis", "setting": "CTLA-4; additional irAEs", "result": "< 2", "unit": "%"}
    ]},
    {"compound": "nivolumab: anti-PD-1 antibody", "values": [
      {"measurement": "clinical response in recurrent/metastatic HNSCC", "setting": "HNSCC", "result": "impressive responses in recurrent/metastatic HNSCC, though only in a minority of patients"}
    ]},
    {"compound": "pembrolizumab: anti-PD-1 antibody", "values": [
      {"measurement": "clinical response in recurrent/metastatic HNSCC", "setting": "HNSCC", "result": "impressive responses in recurrent/metastatic HNSCC, though only in a minority of patients"},
      {"measurement": "response of tumors with low CXCL9 or CXCL10 expression", "setting": "HPV-unrelated HNSCC; neoadjuvant, two to three weeks prior to surgery", "result": "None of the tumors with low CXCL9 or CXCL10 expression exhibited response"},
      {"measurement": "response of patients with NSD1 inactivating mutations", "setting": "HPV-unrelated HNSCC; two patients", "result": "Both were non-responders"}
    ]}
  ]
}
